Reference: patent US20230398130A1, “METHODS AND COMPOSITIONS FOR DIFFERENTIATING STEM CELLS” (Massachusetts Institute of Technology, priority 2020, published 2023)

Assays:
[1] = system: ISC-enriched organoids; test: Primary screen, 384-well 2.5-D organoid differentiation (ENR+CD, 6 days): carbachol-induced lysozyme secretion (LYZ.S); format: cell-based, murine; conditions: ENR+CD, 6 days, FC vs plate median
Source text: (§1) High-throughput screening.

[2] = system: ISC-enriched organoids; test: Primary screen, 384-well 2.5-D organoid differentiation (ENR+CD, 6 days, Target Selective Inhibitor Library, vs whole-plate median): ATP (CellTiter-Glo 3D, CTG); conditions: for Dose.FC.CTG: ENR+CD, 6 days, FC vs plate median; for Z.CTG: standard z score of FC
[3] = system: ISC-enriched organoids; test: Secondary (validation) screen, 384-well 2.5-D, ENR+CD 6 days, n=8 wells, vs ENR+CD+DMSO control: ATP (CTG); format: cell-based, murine; set-up: key to Dose.FC.CTG: log10 fold change vs median of vehicle control wells
Method: (§2) Drugs were tested at a narrowed dose range around each treatment's identified optimal dose from the primary screen (4× below, 2× above and below).
as §1
(§3) Secondary lysozyme secretion assay screen. Confirmatory secondary screening with primary hits was performed using the above 384-well plate method. The screen was conducted with 4-plate replicates with a base media of ENR+CD. Media was supplemented with compound at day 0 and day 3 (n=8 well replicates per dose) at four different doses: two-fold above, two-fold below, and four-fold below the optimal final dose for each respective treatment. Additionally, each plate carried a large number of ENR+DMSO or ENR+CD+DMSO (vehicle) control wells (n=100 for ATP, and n=25 for LYZ.NS and LYZ.S) for robust normalization. ATP, non-stimulated lysozyme activity and CCh-stimulated lysozyme activity was again measured and the collected data was again processed in a custom R-script, per primary screen with slight modification. Values were log10 transformed, and a plate-wise FC was calculated for each well based on the median value of ENR+CD+DMSO (vehicle) control wells to normalize plate to plate variability.

[4] = system: ISC-enriched organoids; test: Secondary (validation) screen, 384-well 2.5-D, ENR+CD 6 days, n=8 wells, vs ENR+CD+DMSO control: basal lysozyme secretion (LYZ.NS); format: cell-based, murine; set-up: key to Dose.FC.LYZ.NS: log10 fold change vs median of vehicle control wells
Method: as §2, §1, §3

[5] = system: ISC-enriched organoids; test: Primary screen, 384-well 2.5-D organoid differentiation (ENR+CD, 6 days): basal lysozyme secretion (LYZ.NS); format: cell-based, murine; conditions: for Dose.FC.LYZ.NS: ENR+CD, 6 days, FC vs plate median; for Z.LYZ.NS: standard z score of FC
Source text: as §1

[6] = system: ISC-enriched organoids; test: Secondary (validation) screen, 384-well 2.5-D, ENR+CD 6 days, n=8 wells, vs ENR+CD+DMSO control: carbachol-induced lysozyme secretion (LYZ.S); format: cell-based, murine
Method: as §2, §1, §3

Work on `NC1(Cc2ccc(Cl)cc2)CCN(c2ncnc3[nH]ccc23)CC1` [CCT128930, reference compound] yielded a Dose.FC.LYZ.S ([1]; Dose 0.08 uM) of 0.266 log 2 fold change, a Dose.FC.LYZ.S ([1]; Dose 0.40 uM) of −0.007 log 2 fold change and a Dose.FC.LYZ.S ([1]; Dose 2.00 uM) of 0.053 log 2 fold change. It also gave a Dose.FC.LYZ.S ([1]; Dose 10.00 uM) of −0.201 log 2 fold change, a Dose.FC.CTG ([2]; Dose 0.08 uM) of 0.095 log 2 fold change and a Z.CTG ([2]; Dose 0.08 uM) of 0.228. The Dose.FC.CTG ([2]; Dose 0.40 uM) was −0.025 log 2 fold change, the Z.CTG ([2]; Dose 0.40 uM) was −0.060 and the Dose.FC.CTG ([2]; Dose 2.00 uM) was 0.127 log 2 fold change. For the same compound, the Z.CTG ([2]; Dose 2.00 uM) was 0.304, the Dose.FC.CTG ([2]; Dose 10.00 uM) was −0.175 log 2 fold change and the Z.CTG ([2]; Dose 10.00 uM) was −0.418. For the same compound, the Dose.FC.CTG ([3]; Dose 0.02 uM) was −0.117, the Z.CTG ([3]; Dose 0.02 uM) was −1.054 and the repSSMD.CTG ([3]; Dose 0.02 uM) was −0.787. The Dose.FC.CTG ([3]; Dose 0.04 uM) was 0.122, the Z.CTG ([3]; Dose 0.04 uM) was 1.101 and the repSSMD.CTG ([3]; Dose 0.04 uM) was 0.922. For the same compound, the Dose.FC.CTG ([3]; Dose […]) was −0.088, the Dose.FC.CTG ([3]; dose 0.08 uM) was 0.166 and the Z.CTG ([3]; dose 0.08 uM) was 1.494. It also gave a repSSMD.CTG ([3]; dose 0.08 uM) of 1.047, a Dose.FC.LYZ.NS ([4]; Dose 0.02 uM) of −0.241 and a Z.LYZ.NS ([4]; Dose 0.02 uM) of −1.927. For the same compound, the repSSMD.LYZ.NS ([4]; Dose 0.02 uM) was −2.551, the Dose.FC.LYZ.NS ([4]; Dose 0.04 uM) was −0.020 and the Z.LYZ.NS ([4]; Dose 0.04 uM) was −0.164. The repSSMD.LYZ.NS ([4]; Dose 0.04 uM) was −0.204, the Dose.FC.LYZ.NS ([4]; Dose […]) was −0.160 and the Dose.FC.LYZ.NS ([4]; dose 0.08 uM) was 0.031. It also gave a Z.LYZ.NS ([4]; dose 0.08 uM) of 0.248, a repSSMD.LYZ.NS ([4]; dose 0.08 uM) of 0.366 and a Dose.FC.LYZ.NS ([5]; Dose 0.08 uM) of 0.323 log 2 fold change. It also gave a Z.LYZ.NS ([5]; Dose 0.08 uM) of 2.811, a Dose.FC.LYZ.NS ([5]; Dose 0.40 uM) of −0.018 log 2 fold change and a Z.LYZ.NS ([5]; Dose 0.40 uM) of −0.154. It also gave a Dose.FC.LYZ.NS ([5]; Dose 2.00 uM) of 0.073 log 2 fold change, a Z.LYZ.NS ([5]; Dose 2.00 uM) of 0.633 and a Dose.FC.LYZ.NS ([5]; Dose 10.00 uM) of −0.150 log 2 fold change. The Z.LYZ.NS ([5]; Dose 10.00 uM) was −1.307, the Z.LYZ.S ([6]; Dose 0.02 uM) was −2.445 and the “log10 fold change in stimulated lysozyme secretion vs vehicle control” value (from here on “log10 fold change”) ([6]; Dose 0.02 uM) was −0.319. For the same compound, the repSSMD.LYZ.S ([6]; Dose 0.02 uM) was −3.825, the Z.LYZ.S ([6]; Dose 0.04 uM) was −0.108 and the “log10 fold change” value ([6]; Dose 0.04 uM) was −0.014. For the same compound, the repSSMD.LYZ.S ([6]; Dose 0.04 uM) was −0.157, the “log10 fold change” value ([6]; Dose […]) was −0.217 and the Z.LYZ.S ([6]; dose 0.08 uM) was 0.041. For the same compound, the “log10 fold change” value ([6]; dose 0.08 uM) was 0.005 and the repSSMD.LYZ.S ([6]; dose 0.08 uM) was 0.069.
